Test results from US20230398218A1, “RAS NEOANTIGENS AND USES THEREOF” (priority 2020, published 2023).
Read-outs that look alike come from different tables or passages of the source. No end group written: not given here.

Experiments:
HLA A01.01 [1] = target: T1, HLA A01.01 (Homo sapiens, UniProt P04439, A114D/A174V/A182V/D101N/D185E/E176A/E190D/L180R/Q94H/R68K/S129P/T187R/V100A/V91M/W191G); experiment: MHC-I peptide binding affinity assay (displacement of radiolabeled reference peptide)
Source text: (§1) 31:813 (1994). […] 149:1896 (1992)).

HLA A02.01 [2] = target: T2, HLA A02.01 (Homo sapiens, UniProt P04439, D140Y/D185E/D98H/E176V/E277Q/G131W/G231S/I119V/I121R/I166T/I218V/L300P/L318F/N151K/N90K/P208A/P217A/Q86G/Q94H/R138H/R169H/T345S); experiment: as above
HLA A24.02 [3] = experiment: as above; parameters: species or system human; settings: Table 11, EGFR T790M peptides; HLA allele A24.02
Source text: as §1

HLA A02.01 [4] = target: T2, HLA A02.01; experiment: MHC-I peptide binding stability assay (pMHC-I dissociation half-life); settings: HLA allele A02.01
Method: (§2) Briefly, synthetic genes encoding biotinylated MHC-I heavy and light chains are expressed in E. coli and purified from inclusion bodies using standard methods. The light chain (β2m) is radio-labeled with iodine (1251), and combined with the purified MHC-I heavy chain and peptide of interest at 18° C. to initiate pMHC-I complex formation. These reactions are carried out in streptavidin coated microplates to bind the biotinylated MHC-I heavy chains to the surface and allow measurement of radiolabeled light chain to monitor complex formation. Dissociation is initiated by addition of higher concentrations of unlabeled light-chain and incubation at 37° C. Stability is defined as the length of time in hours it takes for half of the complexes to dissociate, as measured by scintillation counts.

HLA A03.01 [5] = target: T3, HLA A03.01 (Homo sapiens, UniProt P04439); experiment: MHC-I peptide binding affinity assay (displacement of radiolabeled reference peptide); parameters: made in house; host or cells: E. coli; settings: Table 10, BTK C481S peptides; HLA allele A03.01
Source text: as §1

HLA A03.01 [6] = target: T3, HLA A03.01; experiment: MHC-I peptide binding stability assay (pMHC-I dissociation half-life); parameters: made in house; host or cells: E. coli; settings: Table 10, BTK C481S peptides; HLA allele A03.01
Method: as §2

HLA A01.01 [7] = target: T1, HLA A01.01; experiment: as above; settings: HLA allele A01.01
Method: as §2

HLA B07.02 = HLA B07.02 (Homo sapiens, UniProt P01889); experiment: MHC-I peptide binding affinity assay (displacement of radiolabeled reference peptide); settings: Table 11, EGFR T790M peptides; HLA allele B07.02
Source text: as §1

HLA B08.02 = experiment: as above; parameters: species or system human; settings: Table 11, EGFR T790M peptides; HLA allele B08.02
Source text: as §1

HLA A24.02 [8] = experiment: MHC-I peptide binding stability assay (pMHC-I dissociation half-life); parameters: species or system human; settings: Table 11, EGFR T790M peptides; HLA allele A24.02
Method: as §2

HLA B08.01 = HLA B08.01 (Homo sapiens, UniProt P01889, A93T/A95T/D138N/E176V/E187T/K202T/Q94N/R180D/S35A/V36M/Y33D/Y91F); settings: read-out: Affinity
Source text: As used herein, the term “affinity” refers to a measure of the strength of binding between two members of a binding pair, for example, an HLA-binding peptide and a class I or II HLA. K D is the dissociation constant and has units of molarity. The affinity constant is the inverse of the dissociation constant. An affinity constant is sometimes used as a generic term to describe this chemical entity. It is a direct measure of the energy of binding. Affinity may be determined experimentally, for example by surface plasmon resonance (SPR) using commercially available Biacore SPR units. […] Likewise, ln(IC50) refers to the natural log of the IC50. Koff refers to the off-rate constant, for example, for dissociation of an HLA-binding peptide and a class I or II HLA. […] Given the conditions in which the assays are run (i.e., limiting HLA protein and labeled reference peptide concentrations), these values approximate KD values. […] Alternatively, binding can be expressed relative to binding by a reference standard peptide. For example, can be based on its IC50, relative to the IC50 of a reference standard peptide.
In brief, MHCI complexes were prepared and bound to radiolabeled reference peptides. Peptides were incubated at varying concentrations with these complexes for 2 days, and the amount of remaining radiolabeled peptide bound to MHCI was measured using size exclusion gel-filtration.

[9] = tested on: T2 or HLA-A0201 transfected C1Rs pulsed with peptide; experiment: IFNγ ELISpot assay; format: cell-based, human; settings: number of donors responding out of 2; HLA-A02:01 peptides
Method: In some embodiments the immunogenicity is measured by measuring a protein or peptide expressed by the T cell, using ELISpot assay. Peptide-specific T cells are functionally enumerated using the ELISpot assay (BD Biosciences), which measures the release of IFNγ from T cells on a single cell basis. Target cells (T2 or HLA-A0201 transfected C1Rs) were pulsed with 10 μM peptide for one hour at 37 degrees C., and washed three times. 1×10^5 peptide-pulsed targets are co-cultured in the ELISPOT plate wells with varying concentrations of T cells (5×10^2 to 2×10^3) taken from the immunogenicity culture. Plates are developed according to the manufacturer's protocol, and analyzed on an ELISPOT reader (Cellular Technology Ltd.) with accompanying software. Spots corresponding to the number of IFN gamma-producing T cells are reported as the absolute number of spots per number of T cells plated. T cells expanded on modified peptides are tested not only for their ability to recognize targets pulsed with the modified peptide, but also for their ability to recognize targets pulsed with the parent peptide. Some exemplary data are shown below in Table 13.

[10] = tested on: MHC protein encoded by HLA-C03:04 allele; experiment: Identification of MHC-bound epitope by mass spectrometry; format: cell-based, human; settings: MHC encoded by HLA-C03:04 allele
Source text: (§3) In some embodiments, antigenic peptides comprising an epitope may be identified by mass spectrometry to be bound to an MHC encoded by an HLA.
(§4) Provided herein are KRAS epitopes each of which specifically can bind to the MHC protein encoded by the alleles indicated in right hand column in the same row of Table 1, that have been identified to bind to the MHC protein by mass spectrometry, and that each epitope is presented to T cells by association with the MHC protein in the respective right hand column for each row in Table 1.
(§5) To assess whether antigens could be processed and presented from the larger polypeptide context, peptides eluted from HLA molecules isolated from cells expressing the genes of interest were analyzed by tandem mass spectrometry (MS/MS).

[11] = tested on: MHC protein encoded by HLA-C03:03 allele; experiment: as above; format: cell-based, human; settings: MHC encoded by HLA-C03:03 allele
Source text: as §3, §4, §5

HLA A03.01 [12] = target: T3, HLA A03.01; experiment: HLA-peptide elution and targeted MS/MS (PRM) presentation assay; format: cell-based; parameters: expressed in transfected cells; SW620 cells (lentiviral transduction)
Method: as §5
For analysis of presentation of RAS neoantigens, cell lines were utilized that have RAS mutations naturally or were lentivirally transduced to express the mutated RAS gene. HLA molecules were either isolated based on the natural expression of the cell lines or the cell lines were lentivirally transduced or transiently transfected to express the HLA of interest. […] Greater than 50 million cells expressing peptides encoded by a mutant RAS peptide were cultured and peptides were eluted from HLA-peptide complexes using an acid wash. Eluted peptides were then analyzed by targeted MS/MS with parallel reaction monitoring (PRM). […] Endogenous peptide spectrum is shown in the top panel and the corresponding stable heavy-isotopically labeled spectrum is shown in the bottom panel.

[13] = Table 11, EGFR T790M peptides, HLA allele A02.01, read-out: Affinity
[14] = Table 10, BTK C481S peptides, HLA allele A01.01, read-out: Affinity

## CC[C@H](C)[C@H](NC(=O)[C@H](CC(C)C)NC(=O)[C@H](CCC(N)=O)NC(=O)[C@@H](NC(=O)[C@@H](NC(=O)[C@H](CO)NC(=O)[C@@H](NC(=O)[C@H](CC(C)C)NC(=O)[C@@H](N)CS)[C@@H](C)O)[C@@H](C)O)C(C)C)C(=O)N[C@@H](CCSC)C(=O)O
HLA A01.01 [1]
  IC50: 8.28 µM
HLA A02.01 [2]
  IC50: 0.537 µM

## CC[C@H](C)[C@H](N)C(=O)N[C@@H](CCSC)C(=O)N[C@@H](CCC(N)=O)C(=O)N[C@@H](CC(C)C)C(=O)N[C@@H](CCSC)C(=O)N1CCC[C@H]1C(=O)N[C@@H](Cc1ccccc1)C(=O)NCC(=O)N[C@@H](CS)C(=O)N[C@@H](CC(C)C)C(=O)O
HLA A24.02 [3]
  IC50: 14.1 µM
HLA A02.01 [2]; [13]
  IC50: 0.653 µM
HLA A02.01 [4]; Table 11, EGFR T790M peptides
  Stability (half-life (hr.)): 30.94 min

## CC[C@H](C)[C@H](NC(=O)[C@@H](N)CC(C)C)C(=O)N[C@@H](CCSC)C(=O)N[C@@H](CCC(N)=O)C(=O)N[C@@H](CC(C)C)C(=O)N[C@@H](CCSC)C(=O)N1CCC[C@H]1C(=O)N[C@@H](Cc1ccccc1)C(=O)NCC(=O)N[C@@H](CS)C(=O)O
HLA A02.01 [2]; [13]
  IC50: 0.132 µM
HLA A02.01 [4]; Table 11, EGFR T790M peptides
  Stability (half-life (hr.)): 22.88 min

## CSCC[C@H](N)C(=O)N[C@@H](C)C(=O)N[C@@H](CC(N)=O)C(=O)NCC(=O)N[C@@H](CO)C(=O)N[C@@H](CC(C)C)C(=O)N[C@@H](CC(C)C)C(=O)N[C@@H](CC(N)=O)C(=O)N[C@@H](Cc1ccc(O)cc1)C(=O)O
HLA A01.01 [1]; [14]
  IC50: 0.439 µM
HLA A03.01 [5]
  IC50: 0.0356 µM
HLA A03.01 [6]
  Stability (half-life (hr.)): 14.3 min
HLA A01.01 [7]; Table 10, BTK C481S peptides
  Stability (half-life (hr.)): 12.98 min

## CSCC[C@H](NC(=O)[C@H](CC(C)C)NC(=O)[C@H](CCC(N)=O)NC(=O)[C@@H](N)CCSC)C(=O)N1CCC[C@H]1C(=O)N[C@@H](Cc1ccccc1)C(=O)NCC(=O)N[C@@H](CS)C(=O)N[C@@H](CC(C)C)C(=O)O
HLA B07.02
  IC50: 1.59 µM
HLA A02.01 [2]; [13]
  IC50: 0.116 µM
HLA A02.01 [4]; Table 11, EGFR T790M peptides
  Stability (half-life (hr.)): 22.1 min

## CSCC[C@H](NC(=O)[C@H](CC(C)C)NC(=O)[C@H](CCC(N)=O)NC(=O)[C@@H](N)CCSC)C(=O)N1CCC[C@H]1C(=O)N[C@@H](Cc1ccccc1)C(=O)NCC(=O)N[C@@H](CS)C(=O)N[C@@H](CC(C)C)C(=O)N[C@@H](CC(C)C)C(=O)O
HLA A24.02 [3]
  IC50: 18.9 µM
HLA A02.01 [2]; [13]
  IC50: 0.0163 µM
HLA A02.01 [4]; Table 11, EGFR T790M peptides
  Stability (half-life (hr.)): 22.87 min

## CC[C@H](C)[C@H](NC(=O)[C@H](CC(C)C)NC(=O)[C@@H](N)CCC(N)=O)C(=O)N[C@@H](CCSC)C(=O)N[C@@H](CCC(N)=O)C(=O)N[C@@H](CC(C)C)C(=O)N[C@@H](CCSC)C(=O)N1CCC[C@H]1C(=O)N[C@@H](Cc1ccccc1)C(=O)O
HLA A24.02 [3]
  IC50: 2.03 µM
HLA B08.02
  IC50: 5.59 µM
HLA A24.02 [8]
  Stability (half-life (hr.)): 22.12 min
HLA A02.01 [2]; [13]
  IC50: 0.193 µM
HLA A02.01 [4]; Table 11, EGFR T790M peptides
  Stability (half-life (hr.)): 20.44 min

## CSCC[C@H](NC(=O)[C@H](CCC(=O)O)NC(=O)[C@H](CCCNC(=N)N)NC(=O)[C@H](CC(C)C)NC(=O)[C@H](Cc1ccc(O)cc1)NC(=O)[C@H](CC(N)=O)NC(=O)[C@H](CC(C)C)NC(=O)[C@H](CC(C)C)NC(=O)[C@@H](N)CO)C(=O)O
HLA B08.01
  IC50: 0.96 µM
HLA A02.01 [4]; Table 10, BTK C481S peptides
  Stability (half-life (hr.)): 182.6 min

## CC[C@H](C)[C@H](NC(=O)[C@H](CC(C)C)NC(=O)[C@H](CCC(N)=O)NC(=O)[C@@H](N)C(C)C)C(=O)N[C@@H](CCSC)C(=O)N[C@@H](CCC(N)=O)C(=O)N[C@@H](CC(C)C)C(=O)N[C@@H](CCSC)C(=O)N1CCC[C@H]1C(=O)N[C@@H](Cc1ccccc1)C(=O)O
HLA A24.02 [3]
  IC50: 4.1 µM
HLA A02.01 [2]; [13]
  IC50: 4.94 µM

## FLGYLILGV
[9]
  Immunogenicity (# donors/2): 1 # donors/2

## FLTPKKLQCV
[9]
  Immunogenicity (# donors/2): 1 # donors/2

## FQNSYTIGL
[9]
  Immunogenicity (# donors/2): 2 # donors/2

## FQYPEFSIEL
[9]
  Immunogenicity (# donors/2): 1 # donors/2

## GACGVGKSA
[10]
  binding to MHC protein, identified by mass spectrometry: specifically binds

## GAVGVGKSA
[11]
  binding to MHC protein, identified by mass spectrometry: specifically binds

## ILNDTGCHYV
[9]
  Immunogenicity (# donors/2): 1 # donors/2

## IMQLMPFGC
HLA A02.01 [2]; [13]
  IC50: 1.21 µM
HLA A02.01 [4]; Table 11, EGFR T790M peptides
  Stability (half-life (hr.)): 22.21 min

## LIMQLMPFG
HLA A02.01 [2]; [13]
  IC50: 3.34 µM

## LLANDLMLI
[9]
  Immunogenicity (# donors/2): 2 # donors/2

## LLANGRMPTV
[9]
  Immunogenicity (# donors/2): 2 # donors/2

## LTSTVQLIM
HLA A01.01 [1]; Table 11, EGFR T790M peptides, HLA allele A01.01, read-out: Affinity
  IC50: 2.89 µM
HLA A01.01 [7]; Table 11, EGFR T790M peptides
  Stability (half-life (hr.)): 6.222 min

## QLIMQLMPFG
HLA A02.01 [2]; [13]
  IC50: 5.21 µM

## RLIWLVKMV
[9]
  Immunogenicity (# donors/2): 1 # donors/2

## STVQLIMQL
HLA A02.01 [2]
  IC50: 7.26 µM

## VLDCCISLL
[9]
  Immunogenicity (# donors/2): 1 # donors/2

## VVVGAVGVGK
HLA A03.01 [12]; 293T cells lentivirally transduced with RAS G12V mutation and HLA-A*03:01 gene
  HLA-eluted peptide detected by mass spectrometry: detected
HLA A03.01 [12]; SW620 cells naturally expressing RAS G12V, lentivirally transduced with HLA-A*03:01 gene
  HLA-eluted peptide detected by mass spectrometry: detected

## YMANGSLLNY
HLA A01.01 [1]; [14]
  IC50: 0.0132 µM
HLA A03.01 [5]
  IC50: 0.0959 µM
HLA A03.01 [6]
  Stability (half-life (hr.)): 16.75 min
HLA A01.01 [7]; Table 10, BTK C481S peptides
  Stability (half-life (hr.)): 51.97 min
